Experimental data taken from paper PMC8632988, “Inhibition of SYK and cSrc kinases can protect bone and cartilage in preclinical models of osteoarthritis and rheumatoid arthritis” (Scientific Reports, 2021).
Values joined by “and” are separate entries in the source; they are usually repeats but may differ in a detail not shown here. Identical values can stand only once.

Tested on: DBA/1 mice, CIA model
Experiment: Collagen-induced arthritis model in mice
Format: in vivo, mouse
Settings: BID
Experimental: Collagen-induced arthritis (CIA) model was performed at Bolder BioPATH, USA. Study design and animal usage was approved by Bolder BioPATH’s Institutional Animal Care and Use Committee. CIA was induced in 6–7 week old male DBA/1 mice with body weight of 15–26 g (Harlan, Inc) by intradermal injection of Freund’s Complete Adjuvant (Difco) containing bovine type II collagen (Bolder BioPATH) on day 0 and again on day 21 according to the standard protocol. […] After that mice were randomized into six groups: a control group of four, vehicle group and four treatment groups of ten mice each. […] Each paw was scored daily for inflammation. Therapeutic and prophylactic paws were considered. At study termination mice were euthanized by CO2 inhalation followed by cervical dislocation. Fore paws, hind paws, and knees were removed for microscopy.
Mice were weighed on arthritis days 1, 3, 5, 7, 9, and 11 (prior to necropsy). Daily clinical scores were given for each of the paws (right front, left front, right rear, left rear) on days 1–11 using the following criteria:
After 1–2 days in fixative and 4–5 days in 5% formic acid for decalcification, tissues were trimmed, processed for paraffin embedding, sectioned at 8 µm and stained with toluidine blue. Hind paws and knees were embedded and sectioned in the frontal plane. Two joints from each animal were processed for histopathology evaluation. The joints were then scored by two independent readers as indicated below. When scoring, severity of changes as well as number of individual joints affected were considered. When only 1–3 joints of the paws or ankles out of a possibility of numerous metacarpal/metatarsal/digit or tarsal/tibiotarsal joints were affected, an arbitrary assignment of a maximum score of 1, 2 or 3 for parameters below was given depending on severity of changes. If more than 3 joints were involved, the criteria below were applied to the most severely affected/majority of joints.

SMILES: COc1cc(Nc2ncnc(Nc3cc4c(cn3)NC(=O)C(C)(C)O4)n2)cc(OC)c1OC [MT-SYK-03]
- % inhibition to Vehicle, Paw Score Total AUC Sum (d1-11) (103 mg/kg PO): 12%
- Paw Score Total AUC Sum (d1-11) (103 mg/kg PO, group Mean): 28.48
- Paw Score Total AUC Sum (d1-11) (103 mg/kg PO, individual animals): 27.25 and 32.38 and 26.00 and 35.88 and 12.50 and 29.00 and 37.38 and 33.00 and 33.88 and 17.50
- % inhibition to Vehicle, Average Paw Score (Day 1, 103 mg/kg PO): 0%
- Average Paw Score Per Arthritis Day (All Paws) (Day 1, 103 mg/kg PO, group Mean): 0.80
- Average Paw Score Per Arthritis Day (All Paws) (Day 1, 103 mg/kg PO, individual animals, 103 mg/kg): 0.50 and 1.50 and 1.00
- % inhibition to Vehicle, Average Paw Score (Day 2, 103 mg/kg PO): 18%
- Average Paw Score Per Arthritis Day (All Paws) (Day 2, 103 mg/kg PO, group Mean): 1.50
- Average Paw Score Per Arthritis Day (All Paws) (Day 2, 103 mg/kg PO, individual animals, 103 mg/kg): 1.25 and 2.00 and 1.00 and 2.50 and 1.50 and 0.50
- % inhibition to Vehicle, Average Paw Score (Day 3, 103 mg/kg PO): 15%
- Average Paw Score Per Arthritis Day (All Paws) (Day 3, 103 mg/kg PO, group Mean): 2.25
- Average Paw Score Per Arthritis Day (All Paws) (Day 3, 103 mg/kg PO, individual animals, 103 mg/kg): 2.25 and 3.00 and 1.25 and 3.25 and 2.00 and 2.75 and 2.50
- % inhibition to Vehicle, Average Paw Score (Day 4, 103 mg/kg PO): 13%
- Average Paw Score Per Arthritis Day (All Paws) (Day 4, 103 mg/kg PO, group Mean): 2.75
- Average Paw Score Per Arthritis Day (All Paws) (Day 4, 103 mg/kg PO, individual animals, 103 mg/kg): 2.75 and 3.25 and 2.00 and 3.50 and 1.25 and 3.00
- % inhibition to Vehicle, Average Paw Score (Day 5, 103 mg/kg PO): 12%
- Average Paw Score Per Arthritis Day (All Paws) (Day 5, 103 mg/kg PO, group Mean): 3.08
- Average Paw Score Per Arthritis Day (All Paws) (Day 5, 103 mg/kg PO, individual animals, 103 mg/kg): 3.00 and 3.50 and 2.75 and 3.75 and 1.25 and 4.00 and 2.00
- % inhibition to Vehicle, Average Paw Score (Day 6, 103 mg/kg PO): 11%
- Average Paw Score Per Arthritis Day (All Paws) (Day 6, 103 mg/kg PO, group Mean): 3.18
- Average Paw Score Per Arthritis Day (All Paws) (Day 6, 103 mg/kg PO, individual animals, 103 mg/kg): 3.00 and 3.50 and 3.75 and 1.25 and 4.00 and 2.25
- % inhibition to Vehicle, Average Paw Score (Day 7, 103 mg/kg PO): 10%
- Average Paw Score Per Arthritis Day (All Paws) (Day 7, 103 mg/kg PO, group Mean): 3.28
- Average Paw Score Per Arthritis Day (All Paws) (Day 7, 103 mg/kg PO, individual animals, 103 mg/kg): 3.00 and 3.50 and 3.25 and 4.00 and 1.25 and 4.25 and 3.75 and 2.25
- % inhibition to Vehicle, Average Paw Score (Day 8, 103 mg/kg PO): 12%
- Average Paw Score Per Arthritis Day (All Paws) (Day 8, 103 mg/kg PO, group Mean): 3.33
- Average Paw Score Per Arthritis Day (All Paws) (Day 8, 103 mg/kg PO, individual animals, 103 mg/kg): 3.25 and 3.50 and 4.00 and 1.25 and 4.50 and 3.75 and 4.25 and 2.00
- % inhibition to Vehicle, Average Paw Score (Day 9, 103 mg/kg PO): 13%
- Average Paw Score Per Arthritis Day (All Paws) (Day 9, 103 mg/kg PO, group Mean): 3.43
- Average Paw Score Per Arthritis Day (All Paws) (Day 9, 103 mg/kg PO, individual animals, 103 mg/kg): 3.25 and 3.75 and 3.50 and 4.25 and 1.50 and 4.50 and 2.00
- % inhibition to Vehicle, Average Paw Score (Day 10, 103 mg/kg PO): 13%
- Average Paw Score Per Arthritis Day (All Paws) (Day 10, 103 mg/kg PO, group Mean): 3.53
- Average Paw Score Per Arthritis Day (All Paws) (Day 10, 103 mg/kg PO, individual animals, 103 mg/kg): 3.50 and 3.75 and 4.25 and 1.50 and 4.75 and 4.00 and 2.00
- % inhibition to Vehicle, Average Paw Score (Day 11, 103 mg/kg PO): 12%
- Average Paw Score Per Arthritis Day (All Paws) (Day 11, 103 mg/kg PO, group Mean): 3.55
- Average Paw Score Per Arthritis Day (All Paws) (Day 11, 103 mg/kg PO, individual animals, 103 mg/kg): 3.50 and 3.75 and 4.00 and 4.25 and 1.50 and 4.75 and 2.00
- % inhibition to Vehicle, Total AUC Sum (d1-11) (MT-SYK-03 103 mg/kg PO): 18%
- Summed Prophylactic (Non-Enrollment) Paw Score (MT-SYK-03 103 mg/kg PO, Day 1, group mean): 0.00
- Summed Prophylactic (Non-Enrollment) Paw Score (MT-SYK-03 103 mg/kg PO, Day 1, individual animals): 0
- % inhibition to Vehicle, Summed Prophylactic (Non-Enrollment) Paw Score (MT-SYK-03 103 mg/kg PO, Day 2): 15%
- Summed Prophylactic (Non-Enrollment) Paw Score (MT-SYK-03 103 mg/kg PO, Day 2, group mean): 2.20
- Summed Prophylactic (Non-Enrollment) Paw Score (MT-SYK-03 103 mg/kg PO, Day 2, individual animals, 103 mg/kg): 2 and 4 and 1 and 3 and 0
- % inhibition to Vehicle, Summed Prophylactic (Non-Enrollment) Paw Score (MT-SYK-03 103 mg/kg PO, Day 3): 23%
- Summed Prophylactic (Non-Enrollment) Paw Score (MT-SYK-03 103 mg/kg PO, Day 3, group mean): 3.60
- Summed Prophylactic (Non-Enrollment) Paw Score (MT-SYK-03 103 mg/kg PO, Day 3, individual animals, 103 mg/kg): 5 and 3 and 2 and 1 and 6 and 4
- % inhibition to Vehicle, Summed Prophylactic (Non-Enrollment) Paw Score (MT-SYK-03 103 mg/kg PO, Day 4): 19%
- Summed Prophylactic (Non-Enrollment) Paw Score (MT-SYK-03 103 mg/kg PO, Day 4, group mean): 5.20
- Summed Prophylactic (Non-Enrollment) Paw Score (MT-SYK-03 103 mg/kg PO, Day 4, individual animals, 103 mg/kg): 7 and 3 and 5 and 6 and 1 and 4
- % inhibition to Vehicle, Summed Prophylactic (Non-Enrollment) Paw Score (MT-SYK-03 103 mg/kg PO, Day 5): 16%
- Summed Prophylactic (Non-Enrollment) Paw Score (MT-SYK-03 103 mg/kg PO, Day 5, group mean): 6.10
- Summed Prophylactic (Non-Enrollment) Paw Score (MT-SYK-03 103 mg/kg PO, Day 5, individual animals, 103 mg/kg): 8 and 3 and 6 and 1 and 10 and 7 and 4
- % inhibition to Vehicle, Summed Prophylactic (Non-Enrollment) Paw Score (MT-SYK-03 103 mg/kg PO, Day 6): 16%
- Summed Prophylactic (Non-Enrollment) Paw Score (MT-SYK-03 103 mg/kg PO, Day 6, group mean): 6.40
- Summed Prophylactic (Non-Enrollment) Paw Score (MT-SYK-03 103 mg/kg PO, Day 6, individual animals, 103 mg/kg): 8 and 3 and 9 and 6 and 1 and 10 and 5
- % inhibition to Vehicle, Summed Prophylactic (Non-Enrollment) Paw Score (MT-SYK-03 103 mg/kg PO, Day 7): 17%
- Summed Prophylactic (Non-Enrollment) Paw Score (MT-SYK-03 103 mg/kg PO, Day 7, group mean): 6.50
- Summed Prophylactic (Non-Enrollment) Paw Score (MT-SYK-03 103 mg/kg PO, Day 7, individual animals, 103 mg/kg): 8 and 3 and 9 and 7 and 1 and 10 and 6 and 5
- % inhibition to Vehicle, Summed Prophylactic (Non-Enrollment) Paw Score (MT-SYK-03 103 mg/kg PO, Day 8): 20%
- Summed Prophylactic (Non-Enrollment) Paw Score (MT-SYK-03 103 mg/kg PO, Day 8, group mean): 6.50
- Summed Prophylactic (Non-Enrollment) Paw Score (MT-SYK-03 103 mg/kg PO, Day 8, individual animals, 103 mg/kg): 8 and 3 and 9 and 7 and 1 and 10 and 6 and 5
- % inhibition to Vehicle, Summed Prophylactic (Non-Enrollment) Paw Score (MT-SYK-03 103 mg/kg PO, Day 9): 20%
- Summed Prophylactic (Non-Enrollment) Paw Score (MT-SYK-03 103 mg/kg PO, Day 9, group mean): 6.80
- Summed Prophylactic (Non-Enrollment) Paw Score (MT-SYK-03 103 mg/kg PO, Day 9, individual animals, 103 mg/kg): 8 and 3 and 10 and 2 and 6 and 5
- % inhibition to Vehicle, Summed Prophylactic (Non-Enrollment) Paw Score (MT-SYK-03 103 mg/kg PO, Day 10): 18%
- Summed Prophylactic (Non-Enrollment) Paw Score (MT-SYK-03 103 mg/kg PO, Day 10, group mean): 7.20
- Summed Prophylactic (Non-Enrollment) Paw Score (MT-SYK-03 103 mg/kg PO, Day 10, individual animals, 103 mg/kg): 9 and 3 and 11 and 8 and 2 and 10 and 7 and 5
